One assay deals with E. coli MG1655. In kind it is cell-based.
Assay [1] has as its system E. coli 287 (ATCC #11775). In kind it is cell-based.
Another assay has as its system S. typhimurium hisF645. In kind it is cell-based, Salmonella typhimurium.
Assay [2] concerns Escherichia coli (ATCC#25922). Put plainly: microbe, parasite or virus in culture. The class given is cell-based.
Assay [3] concerns Staphylococcus aureus (ATCC #29213). Put plainly: microbe, parasite or virus in culture. The class given is cell-based.
Where [4] appears, read: Escherichia coli, ATCC25922, 18 h.
Where [5] appears, read: Staphylococcus aureus, ATCC29213, 18 h.

In brackets after ≈: the same amount, converted by molar mass. Where two headings read alike, the source gives them in different places.

As for `N[C@@H](Cc1c[nH]cn1)C(=O)O` [L-histidine], in the assay on E. coli MG1655, the “suitability as nitrogen source (growth, purple color)” value is reported as “not suitable”. Further, in assay [1], the “carbon source utilization result” value was “negative”. Further, the “growth stimulation by supplement (well color)” value with S. typhimurium hisF645 is “turned purple”.

With `CC1(C)S[C@@H]2[C@H](NC(=O)[C@H](N)c3ccccc3)C(=O)N2[C@H]1C(=O)O` [Ampicillin, ampicillin], the MIC in assay [2] fell in the range of 2 to 4 µg/mL; in assay [2] (setting [4]), 1 to 2 µg/mL (≈ 2.86 to 5.72 µM); in assay [3] it was 1 to 2 µg/mL; in assay [3] (setting [5]), 1 to 4 µg/mL (≈ 2.86 to 11.4 µM).

Take `CN(C)[C@@H]1C(O)=C(C(N)=O)C(=O)[C@@]2(O)C(O)=C3C(=O)c4c(O)cccc4[C@@](C)(O)[C@H]3C[C@@H]12` [Tetracycline, tetracycline]: the MIC in assay [2] (setting [4]) was 0.5 to 1 µg/mL (≈ 1.13 to 2.25 µM); in assay [3] it was 0.25 to 1 µg/mL; in assay [3] (setting [5]), 0.25 to 2 µg/mL (≈ 0.563 to 4.5 µM).

These data come from patent publication US6727076B2 (priority 1995, dated 2004).
